Laboratory results reported in PubChem BioAssay (NCI).
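All cell lines were grown in 96-well plates and treated with compound for 48 hours. The concentration for 50% growth inhibition is given as GI50. TGI denotes the concentration required for complete inhibition of growth.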

Columns and labels:
Assay in all cases: NCI-60 cell line screen, 48 h
[1] = tested on: SF-539 CNS
[2] = tested on: MALME-3M melanoma
[3] = tested on: A498 renal
[4] = tested on: EKVX NSCLC
[5] = tested on: HCT-15 colon
[6] = tested on: SF-268 CNS
[7] = tested on: OVCAR-4 ovarian
[8] = tested on: SK-MEL-2 melanoma
[9] = tested on: HOP-62 NSCLC
[10] = tested on: CAKI-1 renal

Structure (SMILES)	GI50 [1] [µM]	TGI [1] [µM]	GI50 [2] [µM]	TGI [2] [µM]	GI50 [3] [µM]	TGI [3] [µM]	GI50 [4] [µM]	TGI [4] [µM]	GI50 [5] [µM]	TGI [5] [µM]	GI50 [6] [µM]	TGI [6] [µM]	GI50 [7] [µM]	TGI [7] [µM]	GI50 [8] [µM]	TGI [8] [µM]	GI50 [9] [µM]	TGI [9] [µM]	GI50 [10] [µM]	TGI [10] [µM]
CC1=C[C@H]2c3c(c(O)c(O)c4oc5ccccc5c(=O)c34)[C@H](c3cc(O)c(O)c4oc5ccccc5c(=O)c34)[C@H]2C(C)(C)C1	1.1	4.89	2.3	11.1	0.519	3.38	1.44	12.8	0.909	12.9	1.14	16.4	0.786	20.2	2.24	6.72	0.978	8.35	0.675	8.34
O=C1C=C(Br)C(=O)C12CCc1ccccc12 (configuration not stated)		35.6		29.5		24.1		62		19.7		58.7		52.4		54.2		69		16.3
O=C(c1ccc2ncc(-c3nc(NC4CC4)ncc3F)n2c1)N1CCOCC1	1.8	4.79	3.33	8.35	1.63	3.82	2.85	71.7	2.51	> 100	2.53	7.12	2.8	10.9	1.66	3.81	2.95	8.28	1.33	62.8
O=c1cc2ccccc2nn1Cc1ccccc1Cl		> 100		> 100		> 100		> 100		> 100		> 100		> 100		> 100		> 100		> 100
C1CCN(c2nsc(N3CCCCC3)n2)CC1		> 100		> 100		> 100		> 100		> 100		> 100		> 100		> 100		> 100		> 100
C[C@]1(CO)[C@H]2CC[C@@]34C=C[C@@](CO)(CC[C@H]3[C@]2(C)CC[C@H]1O)C4		> 100		> 100		> 100		> 100		> 100		> 100		> 100		> 100		> 100		> 100
CC[C@@]1(O)C(=O)NCc2c1cc1n(c2=O)Cc2cc3c(N)cccc3nc2-1	1.04	10.9	1.1		5.09	38.6	16.5	> 51.7	11.5	> 100	0.558		11.4	> 41.5	9.29	> 17.7	0.973		0.981	5.51
O=C(NCCCNc1cc(-c2cn(-c3ccccc3)nc2-c2cccc(O)c2)ccn1)c1ccccc1	3.02	10.3	1.73	4.53	2.32	66.4	3.16	> 100	1.51	5.12	3.74	> 100	3.56	77.3	3.42	13.7	3.79	14.1	2.48	15.3
OCC1OC(n2ccc3c(NO)ncnc32)C(O)C1O (configuration not stated)	0.288	1.29	0.117	0.451	0.152	0.794	0.241	0.994	0.118	1.52	0.233	2.81	0.124	1.3	0.155	0.429	0.219	2.51	0.0472	0.403
N#Cc1cnc2cc(OC[C@@H](O)CO)c(NC(=O)CC3CSSC3)cc2c1Nc1ccc(OCc2cccc(F)c2)c(Cl)c1	0.725	1.47	0.215	0.938	0.848	1.92	0.265	1.18	1.63	6.51	0.0814	0.771	0.128	0.381	0.117	0.286	0.311	0.896	6.34	18.9
CC(C)c1ccc(/C(C(=O)O)=C(\O)C(=O)O)cc1		> 100		> 100		> 100		> 100		> 100		> 100		> 100		> 100		> 100		> 100
C=C1C(=O)O[C@H]2[C@H]1CC/C(COC(=O)NCc1ccc(Cn3c(=O)sn(CCCCl)c3=O)cc1)=C\CC[C@@]1(C)O[C@@H]21	1.74	3.3	1.34	3.05	2.83	11.8	2.82	12.2	1.94	4.25	2.63	10.3	1.67	3.83	4.83	17.4	13.9	27.5	2.05	5.33
